ChEMBL document CHEMBL1201862, “PubChem BioAssay data set” (2004)
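Assay format: 96-well plates, 48-hour exposure. Abbreviation: GI50, concentration required for 50% inhibition of growth.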 Active and inactive are the calls of the source. No stated cut-off is given here; in the data, active = GI50 up to about 1.1 µM and inactive = higher.

What was measured:
Assay in all cases: NCI-60 cell line screen, 48 h
[1] = test system: MDA-MB-231
[2] = test system: HOP-92
[3] = test system: Malme-3M
[4] = test system: HCT-116
[5] = test system: DU-145
[6] = test system: UACC-62
[7] = test system: SN12C
[8] = test system: UACC-257
[9] = test system: 786-0
[10] = test system: ACHN
[11] = test system: A498
[12] = test system: MDA-N
[13] = test system: CCRF-CEM
[14] = test system: NCI-H226
[15] = test system: COLO 205
[16] = test system: U-251
[17] = test system: M14
[18] = test system: NCI-H23
[19] = test system: SK-MEL-2
[20] = test system: HCC 2998

Measured: GI50

C[Si](C)(C)C#Cc1cc(-c2nc3ccccc3s2)ccc1N
inactive: [1] 17.2 µM | [2] 11.5 µM | [3] 3.35 µM | [4] 13.7 µM | [5] 26.6 µM | [6] 16.3 µM | [7] 15.5 µM | [8] 19.5 µM | [9] 17 µM | [10] 15.7 µM | [11] 19.9 µM | [12] 17.8 µM | [13] 21.7 µM | [14] 14.4 µM | [15] 15.5 µM | [16] 19.2 µM | [17] 16.5 µM | [18] 18.5 µM

Cc1ccc([C@@H]2[C@@H](C(=O)c3ccccn3)[C@H](c3ccc(C)cc3)C[C@](O)(c3ccccn3)[C@H]2C(=O)c2ccccn2)cc1
inactive: [1] > 32 µM | [2] 4.61 µM | [3] 8.79 µM | [4] 2.89 µM | [5] 2.17 µM | [6] 3.16 µM | [7] 3.18 µM | [8] 8.04 µM | [9] 1.81 µM | [19] 3.46 µM | [10] 2.51 µM | [12] 3.69 µM | [14] 4.1 µM | [15] 5.24 µM | [16] 2.77 µM | [17] 1.31 µM | [20] 7.35 µM | [18] 18.8 µM
active: [13] 0.851 µM

C=CCCC(=O)C(=[N+]=[N-])C(=O)CCC(=O)c1ccccc1
inactive: [1] > 10 µM | [2] > 10 µM | [3] > 10 µM | [5] > 10 µM | [6] > 10 µM | [7] > 10 µM | [8] > 10 µM | [9] > 10 µM | [19] > 10 µM | [10] > 10 µM | [11] > 10 µM | [12] > 10 µM | [14] > 10 µM | [16] > 10 µM | [17] > 10 µM | [18] > 10 µM

CCCn1c(=O)c(N2CCN(c3ccccc3)CC2)nc2sc3ccccc3c21
inactive: [1] > 100 µM | [2] > 100 µM | [3] > 100 µM | [4] > 100 µM | [5] > 100 µM | [6] > 100 µM | [7] > 100 µM | [8] > 100 µM | [9] > 100 µM | [19] > 100 µM | [10] > 100 µM | [11] > 100 µM | [12] > 100 µM | [13] > 100 µM | [15] > 100 µM | [16] > 100 µM | [17] > 100 µM | [18] > 100 µM

COc1ccc(N[C@H]([C@@H](c2ccccc2)[S+]([O-])c2ccc(C)cc2)C(F)(F)F)cc1 (stereo not given in full)
inactive: [1] 32.9 µM | [2] 34 µM | [3] 75.2 µM | [4] 29.4 µM | [5] 62.8 µM | [6] 29.1 µM | [7] 71.8 µM | [8] > 100 µM | [9] 39 µM | [19] 40 µM | [10] 35 µM | [12] 74.8 µM | [13] 21.8 µM | [14] 48.4 µM | [15] 37.2 µM | [16] 17.9 µM | [17] 45.6 µM | [20] > 100 µM | [18] 41.5 µM

Nc1ccc(-c2nnc(-c3c(Cl)c(Cl)c(Cl)c(Cl)c3-c3nc4cc(C(=O)c5ccccc5)ccc4[nH]3)o2)cc1
inactive: [1] 19.3 µM | [2] 27.2 µM | [3] 22.8 µM | [4] 20.6 µM | [5] 24.8 µM | [7] 16.8 µM | [8] 48.4 µM | [9] 17.1 µM | [19] 24.5 µM | [10] 41.7 µM | [11] 18.5 µM | [12] 4.68 µM | [13] 14.8 µM | [14] 18 µM | [15] 18.6 µM | [16] 18.1 µM | [17] 16.6 µM | [18] 33 µM

Cc1csc(NCc2ccc(Cl)cc2)n1
inactive: [1] 40.6 µM | [2] 23.4 µM | [3] 45.1 µM | [4] 38.6 µM | [5] > 100 µM | [7] 81.5 µM | [8] 67.8 µM | [9] 61.4 µM | [19] 50.9 µM | [10] 70.1 µM | [11] 40.1 µM | [12] 57.7 µM | [13] 39.1 µM | [14] 33.8 µM | [15] 24.1 µM | [16] 41.3 µM | [17] 45.7 µM | [18] 32.3 µM

Cc1ccc(C(=O)O)c(/C=C2\Cc3cc(C)cc(C)c3C2=O)c1
inactive: [1] 41.3 µM | [3] 96.4 µM | [4] 53.7 µM | [5] > 100 µM | [6] 76 µM | [7] 49.4 µM | [8] 90.6 µM | [9] > 100 µM | [19] > 100 µM | [10] 74 µM | [11] 81.1 µM | [12] 56.5 µM | [13] 35.7 µM | [14] 40.5 µM | [16] 78.5 µM | [20] 70.1 µM

Nc1nc2c(=O)c3ccccc3sc2s1
inactive: [1] 31.9 µM | [2] 37.4 µM | [4] 57.8 µM | [5] 68.9 µM | [6] 26.6 µM | [7] 84.3 µM | [8] 54.2 µM | [9] 34.7 µM | [19] > 100 µM | [10] 45.5 µM | [11] 25.4 µM | [12] > 100 µM | [13] 78.3 µM | [14] 21.7 µM | [15] 96.4 µM | [16] 45.1 µM | [17] > 100 µM | [18] 48.5 µM

CCOC(=O)c1ccc(C(=O)/C(C(C)=O)=C2\CCCN2C)n1C
inactive: [1] 27.5 µM | [3] > 100 µM | [4] 30.6 µM | [5] > 100 µM | [6] 49.1 µM | [7] > 100 µM | [8] > 100 µM | [9] > 100 µM | [19] > 100 µM | [10] > 100 µM | [11] 65.8 µM | [12] 86.3 µM | [13] 52.5 µM | [14] > 100 µM | [15] > 100 µM | [16] 86.5 µM | [17] > 100 µM | [20] > 100 µM | [18] 90.6 µM

O=C1C([N-]S(=O)(=O)c2ccccc2)=C([n+]2ccc(Cc3ccccc3)cc2)C(=O)c2ccccc21
active: [3] 0.376 µM | [4] 0.91 µM | [12] 0.191 µM | [15] 0.0644 µM | [18] 0.284 µM
inactive: [1] 2.56 µM | [2] 2.72 µM | [5] 1.53 µM | [6] 1.15 µM | [7] 1.7 µM | [8] 1.22 µM | [9] 1.73 µM | [19] 1.5 µM | [10] 1.79 µM | [13] 29.7 µM | [14] 1.67 µM | [16] 1.85 µM | [17] 1.32 µM | [20] 1.2 µM

CC1(C)[C@@H]2CC[C@]1(C)[C@H](OC(=O)/C=C/c1ccccc1)C2
inactive: [1] 19.3 µM | [3] 17.3 µM | [4] 18.4 µM | [5] 19.4 µM | [6] 21.2 µM | [7] 18.8 µM | [8] 23.8 µM | [9] 18.1 µM | [19] 17.4 µM | [10] 18 µM | [11] 18.3 µM | [12] 31.3 µM | [13] 20.4 µM | [14] 20.8 µM | [15] 17.1 µM | [16] 17.7 µM | [17] 29.9 µM | [20] 17 µM | [18] 21.7 µM

CSC1=N/C(=C\c2ccco2)C(=O)N1CN1CCCCC1
inactive: [1] > 100 µM | [2] 28.4 µM | [3] > 100 µM | [4] 50.4 µM | [5] 81.3 µM | [6] 33.1 µM | [7] 65.3 µM | [9] 54.6 µM | [19] > 100 µM | [10] 69.5 µM | [11] > 100 µM | [12] > 100 µM | [14] > 100 µM | [15] 38.4 µM | [16] > 100 µM | [17] 85.3 µM | [18] > 100 µM

CCOC(OCC)N1C(=O)C2(C(OCC)OCC)CC3C(OC(=O)N3N)c3cccc1c32 (stereo not given)
inactive: [1] > 100 µM | [3] > 100 µM | [4] > 100 µM | [5] > 100 µM | [6] > 100 µM | [7] > 100 µM | [8] > 100 µM | [9] > 100 µM | [10] > 100 µM | [11] 61.2 µM | [12] > 100 µM | [13] 54.2 µM | [14] > 100 µM | [15] > 100 µM | [16] > 100 µM | [20] > 100 µM | [18] > 100 µM

C#C[C@]1(O)CC[C@H]2[C@@H]3CCC4=C/C(=N/NC(=O)c5cccc6c(=O)c7ccccc7[nH]c56)CCC4[C@H]3CC[C@@]21C (stereo not given in full)
inactive: [1] > 100 µM | [2] > 100 µM | [3] 18 µM | [4] 53 µM | [5] > 100 µM | [6] 30.8 µM | [7] > 100 µM | [8] 35.5 µM | [9] 35.6 µM | [19] 33 µM | [10] 65.6 µM | [12] 50.4 µM | [13] 40.3 µM | [14] 73.8 µM | [15] 70 µM | [16] 29.8 µM | [17] 59.8 µM | [20] 47.9 µM | [18] 27.1 µM
